According to PMC3261798, “Design, Synthesis, and Biological Evaluation of PKD Inhibitors” (Pharmaceutics, 2011):

How the values were obtained:
PKD1 [1] = target: T1, PKD1 (Homo sapiens, UniProt Q15139); experiment: % PKD1 activity at 1 μM (single concentration; assay format not stated); format: biochemical; conditions: compound at 1 μM
T1 sequence (Q15139 1-912): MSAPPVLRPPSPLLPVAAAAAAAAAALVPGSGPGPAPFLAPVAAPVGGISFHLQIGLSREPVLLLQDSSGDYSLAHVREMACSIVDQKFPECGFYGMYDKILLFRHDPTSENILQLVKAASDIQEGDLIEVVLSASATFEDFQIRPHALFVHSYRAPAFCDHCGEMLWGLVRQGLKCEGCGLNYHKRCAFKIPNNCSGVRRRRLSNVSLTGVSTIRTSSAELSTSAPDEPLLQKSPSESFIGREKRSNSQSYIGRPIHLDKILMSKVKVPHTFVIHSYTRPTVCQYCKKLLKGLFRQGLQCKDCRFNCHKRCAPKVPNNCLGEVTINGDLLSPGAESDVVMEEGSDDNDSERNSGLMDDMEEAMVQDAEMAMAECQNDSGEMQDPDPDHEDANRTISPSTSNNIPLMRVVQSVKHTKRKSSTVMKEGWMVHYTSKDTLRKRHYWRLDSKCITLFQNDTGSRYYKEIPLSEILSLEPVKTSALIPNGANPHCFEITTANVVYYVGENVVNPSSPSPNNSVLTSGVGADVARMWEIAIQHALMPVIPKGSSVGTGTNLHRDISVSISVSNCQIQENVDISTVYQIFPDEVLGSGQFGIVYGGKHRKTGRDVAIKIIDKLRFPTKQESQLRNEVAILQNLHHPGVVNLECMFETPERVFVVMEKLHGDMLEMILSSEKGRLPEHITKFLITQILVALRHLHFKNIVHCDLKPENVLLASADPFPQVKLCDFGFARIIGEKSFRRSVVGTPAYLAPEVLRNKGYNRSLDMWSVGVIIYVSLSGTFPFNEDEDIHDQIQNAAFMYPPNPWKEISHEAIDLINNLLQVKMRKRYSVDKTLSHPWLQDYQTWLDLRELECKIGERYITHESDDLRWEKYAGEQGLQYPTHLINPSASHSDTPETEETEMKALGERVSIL

PKD1 [2] = target: T1, PKD1; experiment: In vitro radiometric PKD kinase activity assay; format: biochemical; set-up: purchased Biomol International; conditions: mean ± SEM, n = number of independent experiments; for IC50: read-out: IC50 Radiometric PKD1
Experimental: In vitro radiometric PKD kinase assays were conducted as previously described. Briefly, 50 ng recombinant human PKD1 (Biomol International, Plymouth Meeting, PA, USA) was incubated at 30 °C for 10 min with a reaction mixture containing 2.5 μg syntide-2 (Sigma), 70 μM ATP, and 1 μCi γ-^32 P-ATP (PerkinElmer, Boston, MA, USA) in kinase buffer (50 mM Tris-HCl pH 7.5, […], and 10 mM […]). 25 μL of the reaction mixture was then spotted on Whatman P81 filter paper (Whatman Inc., Clifton, NJ, USA), and filter papers were washed three times with 0.5% phosphoric acid, dried, then counted using a Beckman LS6500 multi-purpose scintillation counter.

PKD1 [3] = target: T1, PKD1; experiment: IMAP-based PKD Fluorescence Polarization (FP) assay, automated HTS format; format: biochemical; conditions: mean ± SEM, n = number of independent experiments
Experimental: An automated, HTS formatted IMAP-based PKD Fluorescence Polarization (FP) assay was used to assess the specificity of the PKD analogs as previously described. […] Kinase reactions were incubated for 90 min at room temperature and stopped by the addition of IMAP binding reagent. Assay plates were then incubated for 2 h and IMAP-based FP data were captured on a Molecular Devices Spectra-Max M5 (Sunnyvale, CA, USA).

remaining activity at 1 µM (PKD1 [1]) [%] | melting point | IC50 (PKD1 [2]) [nM] | IC50 (PKD1 [3]) [nM] | IC50 Radiometric PKD1 (PKD1 [2]) | IC50 IMAP-FP PKD1 (PKD1 [3]) | SMILES
83.3 ± 3.8 | 195 to 200 °C |  |  |  |  | O=C1NCCCOc2c1sc1ccc(OCc3ccccc3)cc21 [kb-NB184-36, 2,3,4,5-Tetrahydro-10-benzyloxybenzo[b]thieno[2,3-f]-1,5-oxazocin-6-one]
50.4 ± 2.3 | 284 to 287 °C | 1080 |  |  |  | COc1ccc2c(c1)c1c([s+]2[O-])C(=O)NCCS1 (stereo not shown) [kb-NB184-25, 3,4-Dihydro-9-methoxy-6-oxide-[1]benzothieno[2,3-f]-1,4-thiazepin-5(2H)-one]
 | > 300 °C | 850 ± 110 | 14900 ± 1200 |  |  | O=C1NCCC(=O)c2c1oc1ccc(O)cc21 [kb-NB123-63, 7-Hydroxy-3,4-dihydro-[1]benzoxolo[2,3-c]azepine-1,5(2H)-dione]
77.5 ± 3.6 | 220 to 224 °C |  |  |  |  | COc1cccc2c3c(sc12)C(=O)NCCS3 [kb-NB184-44, 3,4-Dihydro-7-methoxy-[1]benzothieno[2,3-f]-1,4-thiazepin-5(2H)-one]
98.6 ± 4.1 | 213 to 215 °C |  |  |  |  | O=C1NCCSc2c1sc1c(OCc3ccccc3)cccc21 [kb-NB184-38, 3,4-Dihydro-7-benzyloxy-[1]benzothieno[2,3-f]-1,4-thiazepin-5(2H)-one]
91.3 ± 1.5 | 116 to 120 °C |  |  | not inhibitory |  | COC(=O)c1sc2ccc(OC)cc2c1NCCCO [kb-NB184-80, Methyl 3-(3-hydroxypropylamino)-5-methoxybenzo[b]thiophene-2-carboxylate]
99 ± 11 | 269 to 272 °C (dec.) |  |  |  |  | O=C1NCCSc2c1sc1c(O)cccc21 [kb-NB184-40, 3,4-Dihydro-7-hydroxy-[1]benzothieno[2,3-f]-1,4-thiazepin-5(2H)-one]
 | 255 to 257 °C | 1580 | 2400 ± 300 |  |  | C=CCc1c(O)ccc2oc3c(c12)CCCNC3=O [kb-NB96-02, 6-Allyl-7-hydroxy-2,3,4,5-tetrahydro-[1]benzoxolo[2,3-c]azepin-1-one]
74.4 ± 1.1 | 198.6 to 199 °C | 3170 |  |  |  | Nc1ccc2sc3c(c2c1)SCCNC3=O [mcf292-03, 3,4-Dihydro-9-amino-[1]benzothieno[2,3-f]-1,4-thiazepin-5(2H)-one]
 | 244 to 247 °C | 1570 ± 200 | 19400 ± 1400 |  |  | O=C1NCCc2c1[nH]c1ccc(O)cc21 [kb-NB123-59, 2,3,4,9-Tetrahydro-6-hydroxy-1H-pyrido[3,4-b]indol-1-one]
 | 280 to 282 °C | 1230 ± 210 | 24100 ± 710 |  |  | O=C1NCCC(O)c2c1oc1ccc(O)cc21 (stereo not shown) [kb-NB123-89, 5,7-Dihydroxy-2,3,4,5-tetrahydro-[1]benzoxolo[2,3-c]azepin-1-one]
84.3 | 198 to 199 °C | 21700 |  |  |  | O=C1NCCCSc2c1sc1ccc(OCc3ccccc3)cc21 [kb-NB165-89, 2,3,4,5-Tetrahydro-10-benzyloxybenzo[b]thieno[2,3-f]-1,5-thiazocin-6-one]
 | 234 to 236 °C | 1130 | 21700 ± 520 |  |  | O=C1NCCC(=NNc2ccccc2)c2c1oc1ccc(O)cc21 [kb-NB142-05, 7-Hydroxy-5-(2-phenylhydrazono)-2,3,4,5-tetrahydro-[1]benzoxolo[2,3-c]azepin-1-one]
 | > 300 °C | 240 | 1300 ± 50 |  |  | O=C1NCCCc2c1oc1ccc(O)c(F)c21 [kb-NB96-21, 6-Fluoro-7-hydroxy-2,3,4,5-tetrahydro-[1]benzoxolo[2,3-c]azepin-1-one]
 | > 300 °C | 890 | 1400 ± 100 |  |  | O=C1NCCCc2c1oc1ccc(O)c(Cl)c21 [kb-NB77-88, 6-Chloro-7-hydroxy-2,3,4,5-tetrahydro-[1]benzoxolo[2,3-c]azepin-1-one]
 | 198 to 200 °C | 1230 | 2600 ± 200 |  |  | C=CCOc1ccc2oc3c(c2c1)CCCNC3=O [kb-NB77-84, 7-Allyloxy-2,3,4,5-tetrahydro-[1]benzoxolo[2,3-c]azepin-1-one]
29.5 | 185 to 188 °C | 190 ± 30 |  |  |  | COc1ccc2sc3c(c2c1)SCCCNC3=O [kb-NB184-02, 2,3,4,5-Tetrahydro-10-methoxybenzo[b]thieno[2,3-f]-1,5-thiazocin-6-one]
78.3 | 144 to 145 °C | 39600 |  |  |  | c1ccc(COc2ccc3sc4c(c3c2)SCCNC4)cc1 [kb-NB165-81, 2,3,4,5-Tetrahydro-9-benzyloxy-[1]benzothieno[2,3-f]-1,4-thiazepine]
62 ± 3.5 | 233 to 237 °C |  |  |  |  | COc1ccc2sc3c(c2c1)OCCCNC3=O [kb-NB184-57, 2,3,4,5-Tetrahydro-10-methoxybenzo[b]thieno[2,3-f]-1,5-oxazocin-6-one]
66.5 ± 6.1 | 160 to 163 °C (dec.) |  |  |  |  | O=C1NCCSc2c1[s+]([O-])c1ccc(O)cc21 (stereo not shown) [kb-NB184-22, 3,4-Dihydro-9-hydroxy-6-oxide-[1]benzothieno[2,3-f]-1,4-thiazepin-5(2H)-one]
 | 265 to 268 °C | 1410 | 12600 ± 1300 |  |  | O=C1NCCc2c1oc1ccc(O)cc21 [kb-NB123-23A, 6-Hydroxy-3,4-dihydrobenzoxolo[2,3-c]pyridin-1(2H)-one]
55.6 | 250 to 254 °C | 757 |  |  |  | NCCN1CCSc2c(sc3ccc(O)cc23)C1=O [kb-NB165-75, 2,3-Dihydro-4-(2-aminoethyl)-9-hydroxy-[1]benzothieno[2,3-f]-1,4-thiazepin-5(2H)-one]
 | 261 to 263 °C | 2390 | 2400 ± 140 |  |  | COc1ccc2oc3c(c2c1)CCCNC3=O [kb-NB77-56, 7-Methoxy-2,3,4,5-tetrahydro-[1]benzoxolo[2,3-c]azepin-1-one]
12.7 ± 0.2 | 235 to 238 °C (dec.) | 48 |  |  |  | O=C1NCCSc2c1sc1ccc(O)c(Br)c21 [kb-NB184-52, 3,4-Dihydro-9-hydroxy-10-bromo-[1]benzothieno[2,3-f]-1,4-thiazepin-5(2H)-one]
92.4 | 182 to 184 °C (dec.) | 16400 |  |  |  | Oc1ccc2sc3c(c2c1)SCCNC3 [kb-NB165-83, 2,3,4,5-Tetrahydro-9-hydroxy-[1]benzothieno[2,3-f]-1,4-thiazepine]
97 ± 16 | 215 to 217 °C |  |  |  |  | COc1ccc2sc3c(c2c1)[S+]([O-])CCNC3=O (stereo not shown) [kb-NB184-45, 3,4-Dihydro-9-methoxy-1-oxide-[1]benzothieno[2,3-f]-1,4-thiazepin-5(2H)-one]
 | 211 to 213 °C |  |  |  | not inhibitory | O=c1oc2ccc(O)c(Cl)c2c2c1NCCC2 [kb-NB96-47-1, 10-Chloro-9-hydroxy-1,2,3,4-tetrahydrochromeno[3,4-b]pyridin-5-one]
 | 280 to 282 °C | 15700 ± 190 | 74400 ± 2200 |  |  | Nc1ccc2[nH]c3c(c2c1)CCNC3=O [kb-NB142-08, 6-Amino-2,3,4,9-tetrahydro-1H-pyrido[3,4-b]indol-1-one]
